For orientation: IC50 means the midpoint of a concentration-inhibition curve.

Like-named read-outs stand apart in the source and are kept apart here.

The nature of data set [1]: Cytotoxicity in HepG 2.2.15 cells (MTT assay, nine days). The conditions noted are these: human, after nine days, read-out: CC50 (50% cytotoxicity concentration). The format is cell-based, human. On the procedure:
(§1) These synthesized compounds were evaluated for anti-HBV activity with referring to reported method. The HepG2.2.15 cell, a human hepatoblastoma cell line stably transfected with cloned HBV DNA, was obtained from Chinese Academy of Medical Sciences (Beijing, China), and was cultured in Dulbecco’s Modified Eagle’s Medium (DMEM) supplemented with 10% fetal bovine serum and 1.5 g/L of sodium bicarbonate, 10 mL/L of streptomycin, 10 mL/L of penicillin, and 200 mg/L of G418 at 37 °C in a 5% CO2 atmosphere with 95–98% humidity. Then, HepG2.2.15 cell was plated at a density of 1 × 10^5 cells/mL in 96-well plates and incubated at 37 °C for 24 h and then treated with variant concentration of compounds in […]; every three days, in a nine day period, C (OD) values were recorded at 450 nm. After nine days, the percent of cell death was measured using the method of MTT assay after drug treatment. Cytotoxicity of these compounds was expressed as the concentration of compound required to kill 50% (CC50) of the HepG 2.2.15 cells.

Data set [2] concerns HBeAg. Put plainly: cells. To be noted: for HBeAg SI (selectivity index = CC50/IC50): CC50/IC50 for HBeAg. On the procedure:
as §1
(§2) Method for the HBsAg and HBeAg Inhibition Assays. The levels of HBV surface antigen (HBsAg) and HBV e antigen (HBeAg) in the supernatant of the HepG2.2.15 cells were determined by the enzyme-linked immunosorbent assay (ELISA) according to the manufacturer’s protocol (Shanghai Kehua Biotech Co., Ltd., Shanghai, China). The synthesized compounds were expressed as the concentration that achieved 50% inhibition (IC50) to the secretion of HBsAg and HBeAg. The selectivity index (SI) was determined as the ratio of CC50 to IC50 which a major pharmaceutical parameter of estimates possible future clinical application.

The subject of data set [3] is HBsAg. Put plainly: cells. To be noted: for HBsAg SI (selectivity index = CC50/IC50): CC50/IC50 for HBsAg. The protocol:
as §1, §2

The test system of data set [4] is HepG 2.2.15 cells. Put plainly: Cytotoxicity in HepG 2.2.15 cells (MTT assay, nine days). It counts as cell-based, human. The conditions noted are these: after nine days, read-out: CC50 (50% cytotoxicity concentration). On the procedure: as §1
On the technique in general: Tetrazolium dyes change colour on reduction, which living cells bring about.

[5] abbreviates: Hepatitis B virus, HepG2.2.15, read-out: HBeAg IC50.
The mark [6] stands for this setting: Hepatitis B virus, HepG2.2.15, read-out: HBsAg IC50.
Setting [7] is: read-out: HBeAg IC50, secretion of HBeAg, HepG 2.2.15 cells, mean ± S.E.M., n = 3.
Setting [8] is: read-out: HBsAg IC50, secretion of HBsAg, HepG 2.2.15 cells, mean ± S.E.M., n = 3.

As to `Nc1ccn([C@@H]2CS[C@H](CO)O2)c(=O)n1` [Compound 3TC, Lamivudine, reference compound], in data set [1], the CC50 at 9 days came to 516 µM.
In the case of `O=C(CC/C(=N\O)c1ccccc1)OC1CCCCC1` [Compound 4A-1, Cyclohexyl (E)-4-hydroxyimino-4-phenylbutanoate], the CC50 at 9 days in data set [1] was found to be 528 µM. Also, the “HBeAg SI (selectivity index = CC50/IC50)” value in data set [2] (HepG 2.2.15 cells) was found to be 1.41. Besides, the IC50 was 375 ± 36.2 µM in data set [2] (setting [5]) and 506 ± 28.6 µM in data set [3] (setting [6]). Also, in data set [3] (HepG 2.2.15 cells), the “HBsAg SI (selectivity index = CC50/IC50)” value is reported as 1.04.
As for `CO/N=C(\CCC(=O)OC1CCCCC1)c1ccccc1` [Compound 4A-2, Cyclohexyl (E)-4-methoxyimino-4-phenylbutanoate], the CC50 at 9 days in data set [1] is 660 µM. Moreover, the “HBeAg SI (selectivity index = CC50/IC50)” value in data set [2] (HepG 2.2.15 cells) was determined as 5.55. The results for the IC50 in data set [2] (setting [5]) and in data set [3] (setting [6]) were 119 ± 13.2 µM and 109 ± 16.1 µM, respectively. Also, in data set [3] (HepG 2.2.15 cells), the “HBsAg SI (selectivity index = CC50/IC50)” value is 6.03.
`O=C(CC/C(=N\OCc1ccccc1)c1ccccc1)OC1CCCCC1` [Compound 4A-3, Cyclohexyl (E)-4-benzyloxyimino-4-phenylbutanoate]: the CC50 at 9 days in data set [1] is 974 µM. The “HBeAg SI (selectivity index = CC50/IC50)” value in data set [2] (HepG 2.2.15 cells) stood at 7.53. The IC50 in data set [2] (setting [5]) was 129 ± 13.6 µM; in data set [3] (setting [6]), 114 ± 6.15 µM. In addition, the “HBsAg SI (selectivity index = CC50/IC50)” value in data set [3] (HepG 2.2.15 cells) stood at 8.58.
As for `Cc1ccc(/C(CCC(=O)OC2CCCCC2)=N/O)cc1` [Compound 4B-1, Cyclohexyl (E)-4-hydroxyimino-4-(4-methylphenyl)butanoate], the CC50 at 9 days in data set [1] stood at 444 µM. For the same molecule, the “HBeAg SI (selectivity index = CC50/IC50)” value in data set [2] (HepG 2.2.15 cells) came to 1.56. For the same molecule, the IC50 in data set [2] (setting [5]) came out at 284 ± 26.7 µM; in data set [3] (setting [6]) it was 257 ± 16.5 µM. Besides, in data set [3] (HepG 2.2.15 cells), the “HBsAg SI (selectivity index = CC50/IC50)” value worked out at 1.72.
As for `Cc1ccc(/C(CCC(=O)OC2CCCCC2)=N/OCc2ccccc2)cc1` [Compound 4B-3, Cyclohexyl (E)-4-benzyloxyimino-4-(4-methylphenyl)butanoate], the CC50 at 9 days in data set [1] was found to be 860 µM. The “HBeAg SI (selectivity index = CC50/IC50)” value in data set [2] (HepG 2.2.15 cells) is listed as 10.16. The IC50 in data set [2] (setting [5]) was 84.6 ± 6.6 µM; in data set [3] (setting [6]), 78.5 ± 9.87 µM. Further, in data set [3] (HepG 2.2.15 cells), the “HBsAg SI (selectivity index = CC50/IC50)” value is listed as 10.95.
The like results for `COc1ccc(/C(CCC(=O)OC2CCCCC2)=N/O)cc1` [Compound 4C-1, Cyclohexyl (E)-4-hydroxyimino-4-(4-methoxyphenyl)butanoate] were, in that order, 481 µM, 1.19, 405 ± 4.8 µM, 489 ± 11.2 µM and 0.98.
With `CO/N=C(\CCC(=O)OC1CCCCC1)c1ccc(OC)cc1` [Compound 4C-2, Cyclohexyl (E)-4-methoxyimino-4-(4-methoxyphenyl)butanoate], the CC50 at 9 days in data set [1] came out at 630 µM. Moreover, in data set [2] (HepG 2.2.15 cells), the “HBeAg SI (selectivity index = CC50/IC50)” value worked out at 4.92. For the same molecule, the values for the IC50 in data set [2] (setting [5]) and in data set [3] (setting [6]) were 128 ± 34.6 µM and 106 ± 8.67 µM, respectively. Further, the “HBsAg SI (selectivity index = CC50/IC50)” value in data set [3] (HepG 2.2.15 cells) was found to be 5.94.
As for `COc1ccc(/C(CCC(=O)OC2CCCCC2)=N/OCc2ccccc2)cc1` [Compound 4C-3, Cyclohexyl (E)-4-benzyloxyimino-4-(4-methoxyphenyl)butanoate], the CC50 at 9 days in data set [1] was 678 µM. In data set [2] (HepG 2.2.15 cells), the “HBeAg SI (selectivity index = CC50/IC50)” value was found to be 5.20. Also, the values for the IC50 in data set [2] (setting [5]) and in data set [3] (setting [6]) were 130 ± 21.5 µM and 112 ± 7.25 µM, respectively. In addition, the “HBsAg SI (selectivity index = CC50/IC50)” value in data set [3] (HepG 2.2.15 cells) was 6.08.
As to `CO/N=C(\CCC(=O)OC1CCCCC1)c1ccc(Cl)cc1` [Compound 4D-2, Cyclohexyl (E)-4-methoxyimino-4-(4-chlorophenyl)butanoate], the CC50 at 9 days in data set [1] was determined as 581 µM. In addition, the “HBeAg SI (selectivity index = CC50/IC50)” value in data set [2] (HepG 2.2.15 cells) amounted to 6.83. Further, the values for the IC50 in data set [2] (setting [5]) and in data set [3] (setting [6]) were 85.1 ± 11.9 µM and 67.7 ± 8.81 µM, respectively. Besides, the “HBsAg SI (selectivity index = CC50/IC50)” value in data set [3] (HepG 2.2.15 cells) came out at 8.59.
`O=C(CC/C(=N\OCc1ccccc1)c1ccc(Cl)cc1)OC1CCCCC1` [Compound 4D-3, Cyclohexyl (E)-4-benzyloxyimino-4-(4-chlorophenyl)butanoate]: the CC50 at 9 days in data set [1] was found to be 604 µM. For the same molecule, in data set [2] (HepG 2.2.15 cells), the “HBeAg SI (selectivity index = CC50/IC50)” value was 6.25. The IC50 in data set [2] (setting [5]) was 96.8 ± 5.13 µM; in data set [3] (setting [6]), 92.6 ± 4.94 µM. Moreover, the “HBsAg SI (selectivity index = CC50/IC50)” value in data set [3] (HepG 2.2.15 cells) worked out at 6.53.
As for “Cyclohexyl (E)-4-hydroxyimino-4-(4-chlorophenyl)butanimidate [Compound 4D-1]”, the CC50 in data set [4] is 396 µM. For the same molecule, the IC50 in data set [2] (setting [7]) is 373 ± 16.9 µM; in data set [3] (setting [8]) it was 352 ± 11 µM.
As for “Cyclohexyl (E)-4-methoxyimino-4-(4-methoxyphenyl)butanoate [Compound 4B-2]”, the CC50 in data set [4] worked out at 856 µM. Further, the results for the IC50 in data set [2] (setting [7]) and in data set [3] (setting [8]) were 49.4 ± 4.17 µM and 63.9 ± 6.26 µM, respectively.
